The results in this text go back to patent publication US7083962B2, “Carbonyl reductases, polynucleotides comprising DNA encoding the same, methods for producing the same, and methods for producing optically active alcohol utilizing the same” (Daicel Chemical Industries Ltd., priority 2004, dated 2006).

B1: YGL157w: Saccharomyces cerevisiae carbonyl reductase homolog, SEQ ID NO: 17, expressed in E. coli from pSE-YGP7 (protein, listed as Saccharomyces cerevisiae)
chain: MTTDTTVFVSGATGFIALHIMNDLLKAGYTVIGSGRSQEKNDGLLKKFNNNPKLSMEIVEDIAAPNAFDEVFKKHGKEIKIVLHTASPFHFETTNFEKDLLTPAVNGTKSILEAIKKYAADTVEKVIVTSSTAALVTPTDMNKGDLVITEESWNKDTWDSCQANAVAAYCGSKKFAEKTAWEFLKENKSSVKFTLSTINPGFVFGPQMFADSLKHGINTSSGIVSELIHSKVGGEFYNYCGPFIDVRDVSKAHLVAIEKPECTGQRLVLSEGLFCCQEIVDILNEEFPQLKGKIATGEPATGPSFLEKNSCKFDNSKTKKLLGFQFYNLKDCIVDTAAQMLEVQNEA
B2: YGL039w: Saccharomyces cerevisiae carbonyl reductase homolog, SEQ ID NO: 21, expressed in E. coli from pSE-YGD9 (protein, listed as Saccharomyces cerevisiae)
chain: MTTEKTVVFVSGATGFIALHVVDDLLKTGYKVIGSGRSQEKNDGLLKKFKSNPNLSMEIVEDIAAPNAFDKVFQKHGKEIKVVLHIASPVHFNTTDFEKDLLIPAVNGTKSILEAIKNYAADTVEKVVITSSVAALASPGDMKDTSFVVNEESWNKDTWESCQANAVSAYCGSKKFAEKTAWDFLEENQSSIKFTLSTINPGFVFGPQLFADSLRNGINSSSAIIANLVSYKLGDNFYNYSGPFIDVRDVSKAHLLAFEKPECAGQRLFLCEDMFCSQEALDILNEEFPQLKGKIATGEPGSGSTFLTKNCCKCDNRKTKNLLGFQFNKFRDCIVDTASQLLEVQSKS
B3: YDR541c: Saccharomyces cerevisiae carbonyl reductase homolog, SEQ ID NO: 25, expressed in E. coli from pSE-YDR1 (protein, listed as Saccharomyces cerevisiae)
chain: MSNTVLVSGASGFIALHILSQLLKQDYKVIGTVRSHEKEAKLLRQFQHNPNLTLEIVPDISHPNAFDKVLQKRGREIRYVLHTASPFHYDTTEYEKDLLIPALEGTKNILNSIKKYAADTVERVVVTSSCTAIITLAKMDDPSVVFTEESWNEATWESCQIDGINAYFASKKFAEKAAWEFTKENEDHIKFKLTTVNPSLLFGPQLFDEDVHGHLNTSCEMINGLIHTPVNASVPDFHSIFIDVRDVALAHLYAFQKENTAGKRLVVTNGKFGNQDILDILNEDFPQLRGLIPLGKPGTGDQVIDRGSTTDNSATRKILGFEFRSLHESVHDTAAQILKKENRL

One series deals with carbonyl reductase. In words: Substrate specificity: NADPH-dependent reduction by the carbonyl reductase obtained in Example 1. The series is classed as biochemical, Torulaspora delbrueckii. Conditions: substrate 1 mM, coenzyme NADPH; reduction of 3,4-dimethoxyphenylacetone regarded as 100. As to the method:
(§1) A reaction solution comprising 50 mM potassium phosphate buffer (pH 6.5), 0.2 mM NADPH, 5 mM 3,4-dimethoxyphenylacetone, and an enzyme is reacted at 30° C. Any decrease in absorbance at 340 nm accompanying a decrease in NADPH is measured. 1U is defined as the amount of enzyme which catalyzes a 1 μmol decrease of NADPH in one minute.
(§2) The enzyme obtained in Example 1 was reacted with various ketones, ketoesters, and soon. The activities of the reduction reactions were expressed as relative activities, where the reduction of 3,4-dimethoxyphenylacetone was regarded as 100 (Table 2) (substrate specificity of carbonyl reductase). The activity of dehydrogenating 1-(3,4-dimethoxyphenyl)-2-propanol was measured as follows: A reaction was performed at 30° C. in a reaction solution comprising 50 mM Tris-HCl buffer (pH 8.5), 2.5 mM NADP^+, 5 mM 1-(3,4-dimethoxyphenyl)-2-propanol, and the enzyme. An increase in absorbance at 340 nm, accompanying NADPH production, was measured. 1 U was defined as the amount of enzyme catalyzing the production of 1 μmol NADPH per minute. In addition, the activity of reducing NADH-dependent 3,4-dimethoxyphenylacetone was measured as follows: A reaction was performed at 30° C. in a reaction solution comprising 50 mM potassium phosphate buffer (pH 6.5), 0.2 mM NADH, 5 mM 3,4-dimethoxyphenylacetone, and the enzyme, and decrease in absorbance at 340 nm, accompanying decrease in NADH, was measured. 1 U was defined as the amount of enzyme catalyzing a decrease of 1 μmol NADH per minute.
Turning to `CC12CCC(C(=O)C1=O)C2(C)C` (centres unmarked) [Camphorquinone], the Relative activity came to 644%.

The same series, now with this note: substrate 2 mM, coenzyme NADPH; reduction of 3,4-dimethoxyphenylacetone regarded as 100.
For the molecule `O=C(CCl)c1cccc(Cl)c1` [2-Chloro-1-(3′-chlorophenyl)ethanone], the Relative activity is 922%.

The same series, now with this note: substrate 20 mM, coenzyme NADPH; reduction of 3,4-dimethoxyphenylacetone regarded as 100.
`CC(=O)COC(C)=O` [1-Acetoxy-2-propanone]: the Relative activity is reported as 24700%.

On to `CC(=O)C(C)=O` [2,3-Butanedione], for which the Relative activity worked out at 1480%.

`CCC(=O)C(C)=O` [2,3-Pentanedione]: the Relative activity was 2590%.

Consider `CC(=O)CC(C)=O` [2,4-Pentanedione], for which the Relative activity worked out at 422%.

Consider `CC(=O)OC(C)C(C)=O` (centres unmarked) [2-Acetoxy-3-butanone], for which the Relative activity stood at 589%.

As to `CC(=O)OC1CCCC1=O` (centres unmarked) [2-Acetoxycyclopentanone], the Relative activity came to 567%.

Regarding `CCC(=O)c1ccc(OC)cc1` [4′-Methoxypropiophenone], the Relative activity was 283%.

With `CC(=O)c1ccccc1` [Acetophenone], the Relative activity is 256%.

For `CC(=O)CCc1ccccc1` [Benzylacetone], the Relative activity came to 739%.

Regarding `CCOC(=O)CC(=O)CCl` [Ethyl 4-chloroacetoacetate], the Relative activity amounted to 6780%.

Take `CCOC(=O)CC(C)=O` [Ethyl acetoacetate]: the Relative activity was 3170%.

On to `COCC(C)=O` [Methoxyacetone], for which the Relative activity stood at 117%.

`COC(=O)CC(=O)CCl` [Methyl 4-chloroacetoacetate]: the Relative activity is 8040%.

`COC(=O)CC(C)=O` [Methyl acetoacetate]: the Relative activity came out at 3670%.

Take `COC(=O)C(C)=O` [Methyl pyruvate]: the Relative activity was determined as 1320%.

Turning to `CC(=O)COc1ccccc1` [Phenoxy-2-propanone], the Relative activity is listed as 939%.

Tested on in another series: not listed separately
In words: 3,4-dimethoxyphenylacetone-reducing activity of cell-free extracts of transformed Escherichia coli. The series is classed as biochemical, Escherichia coli JM109. Conditions: cell-free extracts of E. coli expressing the homolog. The protocol: as §1
Escherichia coli JM109 strain transformed with plasmid pSE-TDR1, which expresses carbonyl reductase, and plasmid pSG-TDR1, which coexpresses carbonyl reductase and Bacillus subtilis-derived glucose dehydrogenase, was cultured overnight at 30° C. in liquid LB medium containing ampicillin. 0.1 mM IPTG was added, and the strain was further cultured for four hours.
Cells were collected by centrifugation, and then suspended in 50 mM potassium phosphate buffer (pH 6.5) comprising 0.5 M NaCl, 0.02% 2-mercaptoethanol, 2 mM PMSF, and 10% glycerin. Cells were then disrupted by sonication, and centrifuged. The obtained supernatant was used as a cell-free extract. The 3,4-dimethoxyphenylacetone-reducing activity and glucose-dehydrogenating activity of the cell-free extract were measured. The glucose-dehydrogenating activity was measured as follows: Measurements were performed at 30° C. in a reaction solution comprising the enzyme and 100 mM potassium phosphate buffer (pH 6.5), 2.5 mM NAD^+, 100 mM glucose. 1 U was defined as the amount of enzyme to catalyze production of […] of NADH per minute under the aforementioned reaction conditions.
Escherichia coli JM109+strains comprising pSE-YGP7, pSE-YGD9, pSE-YDR1, pSG-YGP7, pSG-YGD9, or pSG-YDR1 were cultured on LB medium comprising ampicillin, induced with 0.1 mM IPTG for four hours, and then centrifuged to collect the cells.
Each of these cell samples was suspended in a cell lysis solution (50 mM KPB pH 8.0, 1 mM EDTA, 0.02% 2-mercaptoethanol, 2 mM PMSF, 10% Glycerol). The cells were ruptured by sonication and then centrifuged to obtain the supernatant, which was used as a cell-free extract.
For the molecule B1, the “3,4-dimethoxyphenylacetone reductase activity (in words)” value is on record as “confirmed to comprise 3,4-dimethoxyphenylacetone reductase activity”.

With B2, the “3,4-dimethoxyphenylacetone reductase activity (in words)” value is “confirmed to comprise 3,4-dimethoxyphenylacetone reductase activity”.

For B3, the “3,4-dimethoxyphenylacetone reductase activity (in words)” value is “confirmed to comprise 3,4-dimethoxyphenylacetone reductase activity”.

The test system of a further series is carbonyl reductase. In words: Activity of dehydrogenating 1-(3,4-dimethoxyphenyl)-2-propanol with NADP+. Format: biochemical, Torulaspora delbrueckii. Conditions: substrate 5 mM, coenzyme NADP+, dehydrogenation, pH 8.5, 30° C. As to the method:
as §2
For the molecule `COc1ccc(C[C@@H](C)O)cc1OC` [(R)-1-(3,4-dimethoxyphenyl)-2-propanol], the Relative activity worked out at 0.0%.

For the molecule `COc1ccc(C[C@H](C)O)cc1OC` [(S)-1-(3,4-dimethoxyphenyl)-2-propanol], the Relative activity was 0.0%.

Tested on in another series: not listed separately
Put plainly: Enzymatic synthesis of (S)-1-(3,4-dimethoxyphenyl)-2-propanol: optical purity and reaction yield. Conditions: 0.2 U homolog enzyme, 50 mM 3,4-dimethoxyphenylacetone, overnight, 25° C., pH 6.5. The series is classed as biochemical. The protocol:
A reaction was performed overnight at 25° C. in 1 mL of a reaction solution comprising 200 mM potassium phosphate buffer (pH 6.5), 1 mM NADP^+, 2 U glucose dehydroganase (Wako Pure Chemical Industries, Ltd.), 250 mM glucose, 0.25 U carbonyl reductase, and 50 mM 3,4-dimethoxyphenylacetone. The optical purity of the produced (S)-1-(3,4-dimethoxyphenyl)-2-propanol was measured as follows: One mL of ethyl acetate was added to 0.5 mL of the reaction solution to extract (S)-1-(3,4-dimethoxyphenyl)-2-propanol, and the extraction solvent was desolvated. 0.5 mL of a dissolving solution (n-hexane: isopropanol=4:1) was then added to dissolve the extract, which was then analyzed by liquid chromatography using an optical resolution column. CHIRALCEL OF (4.6 mm×25 cm; Daicel Chemical Industries, Ltd.) was used as the optical resolution column. Chromatography was performed with a wavelength of 220 nm, a flow rate of 1.0 mL/min, and at 40° C. using an eluting solution of n-hexane: isopropanol=4:1.
In addition, the (S)-1-(3,4-dimethoxyphenyl)-2-propanol thus-produced was quantified using gas chromatography, and a yield relative to the raw starting material, 3,4-dimethoxyphenylacetone, was obtained. Specifically, the analysis was performed at a column temperature of 210° C., using Thermon 3000 (10%)-Chromosorb W (AW-DMCS, Mesh 60–80; 3.2 mm×210 cm) with a hydrogen flame ionization detector (FID). The resulting reaction yield was about 95%.
To prepare crude enzyme solution for enzyme reaction, the crude enzyme solution prepared in Example 18 was concentrated ten-folds using a UF membrane. This solution was reacted overnight at 25° C. in 1 mL of a reaction solution comprising 200 mM potassium phosphate buffer (pH 6.5), 1 mM NADP^+, 2 U glucose dehydrogenase (Wako Pure Chemical Industries, Ltd.), 250 mM glucose, 0.2 U homolog enzyme, and 50 mM 3,4-dimethoxyphenylacetone. Optical purity was measured and the produced (S)-1-(3,4-dimethoxyphenyl)-2-propanol was quantified as in Example 6. As a result, YGL157w (pSE-YGP7) produced 93.7% ee (S)-1-(3,4-dimethoxyphenyl)-2-propanol at a yield of 66%, YGL039w (pSE-YGD9) produced 93.6% ee at a yield of 94%, and YDR541c (pSE-YDR1) produced 94.8% ee at a yield of 6%.
Turning to B1, the “Optical purity of the produced (S)-1-(3,4-dimethoxyphenyl)-2-propanol” value (from here on “Optical purity of the produced”) came to 93.7 % ee and the “Yield of (S)-1-(3,4-dimethoxyphenyl)-2-propanol” value (“Yield” for short) is recorded as 66%.

As for B2, the “Optical purity of the produced” value is listed as 93.6 % ee and the “Yield” value is given as 94%.

In the case of B3, the “Optical purity of the produced” value stood at 94.8 % ee and the “Yield” value was found to be 6%.
